Test results: patent US9546195B2, “Hydrophobic ceragenin compounds and devices incorporating same” (BRIGHAM YOUNG UNIVERSITY, priority 2011, dated 2017)

How the values were obtained:
microbes = experiment: Ability to elute from polymer and kill microbes; conditions: compared with other ceragenins
[1] = Elution of CSA-138 from hydrogel contact lenses, LC/MS with mass-labeled internal standard; format: physicochemical; conditions: lenses with CSA-138 incorporated at 1%; LC/MS detection limit about 2 μg/ml
Experimental: To better understand the mechanism by which hydrophobic ceragenin compounds can prevent bacterial colonization, the bonding between CSA-138 and a hydrogel used in contact lenses was evaluated. In a first example, we determined the rate at which CSA-138 elutes from a hydrogel suitable for use in contact lenses. To quantify the amount of ceragenin eluting from the hydrogel, we used LC/MS using a mass-labeled internal standard. However, this method only gave detection limits of about 2 μg/ml, and we were able to effectively kill bacteria at constant elution rates below the detection limit.

P. aeruginosa [2] = experiment: MIC of CSA-138 for P. aeruginosa; format: cell-based; conditions: Pseudomonas aeruginosa
S. aureus [3] = conditions: elution from lenses, inocula 10^6 CFU S. aureus; cited from earlier work
[4] = Elution of radiolabeled CSA-138 from hydrogel contact lenses, scintillation counting; format: physicochemical
Experimental: To decrease the detection limit for CSA-138, we prepared a radiolabeled version of CSA-138 (CSA-138T2), incorporated it into contact lenses, and quantified its elution from lenses using scintillation counting.
Lenses containing 1% CSA-138 were stored in 0.5 mL phosphate buffered saline (PBS) prior to testing. One set of lenses was autoclaved for 45 min before elution studies were performed. For elution studies, lenses were suspended in 2 ml aliquots of PBS, 10% TSB growth medium, 10% TSB growth medium containing 10^6 CFU of Staphylococcus aureus, or 10% TSB growth medium containing 10^6 CFU of Pseudomonas aeruginosa. Corresponding aliquots were exchanged every 24 h, including bacterial inocula. Samples were removed every 24 h and analyzed for the presence of CSA-138 using scintillation counting. A standard curve was generated to correlate counts per minute to concentration of CSA-138. All experiments were performed in triplicate.

P. aeruginosa [5] = conditions: elution from lenses, inocula 10^6 CFU P. aeruginosa; cited from earlier work
S. aureus [6] = experiment: MIC of CSA-138 for S. aureus; format: cell-based; conditions: Staphylococcus aureus

| SMILES | ability to elute and kill microbes (microbes) | time until elution fell below detection limits [1] | MIC (P. aeruginosa [2]) | prevents colonization, consecutive days (S. aureus [3]) | elution in the presence of bacteria ([4]; 10% TSB with 10^6 CFU S. aureus (nine days) or P. aeruginosa (eight days), FIGS. 6 and 7) | elution on the first day ([4]; lenses containing 1% CSA-138, suspended in 2 ml PBS, first day (FIG. 3)) | time until elution of CSA-138 drops below 1 μg/ml ([4]; trend of FIG. 5 extended) | prevents colonization (P. aeruginosa [5]) | MIC (S. aureus [6]) |
| --- | --- | --- | --- | --- | --- | --- | --- | --- | --- |
| CCCCCCCCCCNCCC[C@@H](C)[C@H]1CC[C@H]2[C@@H]3[C@H](OCCCN)C[C@@H]4C[C@H](OCCCN)CC[C@]4(C)[C@H]3C[C@H](OCCCN)[C@]12C [CSA-136] | advantageous over CSA-135 | – | – | – | – | – | – | – | – |
| CCCCCCCCCCCCCNCCC[C@@H](C)[C@H]1CC[C@H]2[C@@H]3[C@H](OCCCN)C[C@@H]4C[C@H](OCCCN)CC[C@]4(C)[C@H]3C[C@H](OCCCN)[C@]12C [CSA-138] | – | within five days | 1 µg/mL | 30 days | fluctuated substantially | about 2.2 μg/ml | about 40 days | 19 days | 0.5 µg/mL |
